Data published in US10100282B2, “Differentiation of pluripotent cells” (FUJIFILM Cellular Dynamics, Inc., priority 2009, dated 2018).

Experiments:
hESCs and iPSCs = assay: EB formation from single cell suspensions using ROCK inhibitors/PVA; assay type: cell-based, human; settings: 18-24 hrs
Procedure: hESCs and iPSCs adapted to feeder free growth on matrigel maintained using mTESR were preconditioned for three days in the presence of mTesR-GF containing 0.1 ng/ml TGF-β and 20 ng/ml FGF-2. To initiate differentiation from single cells the, the cultures were treated with TrypLE™ (Invitrogen) for 6 minutes and the cells suspension was collected in (1) plain EB basal media, (2) EB basal media containing PVA, (3) EB basal media containing 0.5% PVA and 1 μM H1152 or 10 μM Y27632 ROCK inhibitor, or (4) EB basal media containing only 1 uM H1152 ROCK inhibitor. The cells were collected and washed once and plated in the respective media formulations on a low attachment plate at 37 C. The EB formation status was checked at 18-24 hrs later under a phase contrast microscope.

hESCs = assay: Cytokine matrix: serum-free EB hematopoietic differentiation, surface markers by flow cytometry; assay type: cell-based, human; settings: for role during EB differentiation: serum free hematopoietic differentiation, days 8, 12, 17
Procedure: Cells were collected from each well/condition and washed once with media. The cell pellet was digested using TrypLE™ or 0.5% trypsin for 5-10 minutes in a 37° C. incubator followed by washes with media and passage through a 70-μm cell strainer. […] Non-viable cells were excluded with 7-aminoactinomycin D (7-AAD, BD Biosciences). Live cell analysis was performed on a FACSCalibur™ or Accuri flow cytometer and Cell Quest software. hESCs adapted to feeder free growth on matrigel maintained using mTESR were preconditioned for three days in the presence of X-vivo-15 containing 0.1 ng/ml TGF-β and 20 ng/ml FGF-2. Cells were harvested using TrypLE for 6 minutes at 37 C. TrypLE™ was neutralized using EB basal media containing 1 μM ROCK inhibitor (H-1152), Soybean trypsin inhibitor (0.25 mg/ml). The cells were washed once in EB basal media containing 1 μM ROCK inhibitor and soybean trypsin inhibitor (0.25 mg/ml). The cells were plated in low attachment plates in EB basal media containing 1 μM ROCK inhibitor and soybean trypsin inhibitor (0.25 mg/ml). The media was changed the next day to EB basal media containing different cytokine formulations. […] The cytokine combinations used are listed below in Table 3. The EB cultures were half fed with fresh differentiation media every two days. The EB cultures were harvested on day 8, 12 and 17 of differentiation. The EB cultures were harvested by spinning down all the cells and digesting the EBs with TrypLE™ or 0.5% trypsin. The phenotype of the progenitor cell types was analyzed by flow cytometry and the cells were plated in methylcellulose media for CFU assays. “FLT3” refers to the Flt3 ligand below.

pluripotent cells = assay: Hematopoietic differentiation in defined cell culture media with single growth factors; assay type: cell-based; settings: factor alone in a cell culture media

Molecule | CD31 expressing cells (hESCs; DAY 8, factor ABSENT) [%] | CD34 expressing cells (hESCs; DAY 8, factor ABSENT) [%] | CD43 expressing cells (hESCs; DAY 8, factor ABSENT) [%] | CD45 expressing cells (hESCs; DAY 8, factor ABSENT) [%] | FLK-1 expressing cells (hESCs; DAY 8, factor ABSENT) [%] | CD31 expressing cells (hESCs; DAY 8, factor PRESENT) [%] | CD34 expressing cells (hESCs; DAY 8, factor PRESENT) [%] | CD43 expressing cells (hESCs; DAY 8, factor PRESENT) [%] | CD45 expressing cells (hESCs; DAY 8, factor PRESENT) [%] | FLK-1 expressing cells (hESCs; DAY 8, factor PRESENT) [%] | CD31 expressing cells (hESCs; DAY 12, factor ABSENT) [%] | CD34 expressing cells (hESCs; DAY 12, factor ABSENT) [%] | CD43 expressing cells (hESCs; DAY 12, factor ABSENT) [%] | CD45 expressing cells (hESCs; DAY 12, factor ABSENT) [%] | FLK-1 expressing cells (hESCs; DAY 12, factor ABSENT) [%] | CD31 expressing cells (hESCs; DAY 12, factor PRESENT) [%] | CD34 expressing cells (hESCs; DAY 12, factor PRESENT) [%] | CD43 expressing cells (hESCs; DAY 12, factor PRESENT) [%] | CD45 expressing cells (hESCs; DAY 12, factor PRESENT) [%] | FLK-1 expressing cells (hESCs; DAY 12, factor PRESENT) [%] | also measured
C[C@@H](N)[C@H]1CC[C@H](C(=O)Nc2ccncc2)CC1 [Y-27632, (R)-(+)-trans-4-(1-Aminoethyl)-N-(4-Pyridyl)cyclohexanecarboxamide] | – | – | – | – | – | – | – | – | – | – | – | – | – | – | – | – | – | – | – | – | EB status (hESCs and iPSCs; ROCK inhibitor present (1 μM H1152 or 10 μM Y27632), 0.5% PVA present): Formed; EB status (hESCs and iPSCs; ROCK inhibitor present, PVA absent): Formed
VEGF | 0.4 | 0.7 | 0.1 | 0.1 | 2.0 | 1.1 | 1.5 | 1.6 | 0.2 | 1.8 | 0.6 | 1.3 | 0.2 | 0.2 | 0.3 | 3.2 | 2.9 | 4.0 | 3.6 | 0.6 | CD31 expressing cells (hESCs; DAY 17, factor ABSENT): 1.0%; CD34 expressing cells (hESCs; DAY 17, factor ABSENT): 2.0%; CD43 expressing cells (hESCs; DAY 17, factor ABSENT): 0.9%; CD45 expressing cells (hESCs; DAY 17, factor ABSENT): 0.4%; FLK-1 expressing cells (hESCs; DAY 17, factor ABSENT): 1.4%; CD31 expressing cells (hESCs; DAY 17, factor PRESENT): 11.8%; CD34 expressing cells (hESCs; DAY 17, factor PRESENT): 2.8%; CD43 expressing cells (hESCs; DAY 17, factor PRESENT): 12.6%; CD45 expressing cells (hESCs; DAY 17, factor PRESENT): 12.7%; FLK-1 expressing cells (hESCs; DAY 17, factor PRESENT): 2.3%; role during EB differentiation (hESCs): significant role at all time points; promotion of hematopoietic differentiation (pluripotent cells): did not promote hematopoietic differentiation
TPO: Thrombopoietin, a glycoprotein hormone | 0.8 | 1.0 | 1.0 | 0.2 | 1.9 | 0.8 | 1.3 | 0.8 | 0.2 | 1.9 | 2.3 | 2.2 | 2.2 | 2.6 | 0.7 | 1.7 | 2.2 | 2.3 | 1.5 | 0.3 | CD31 expressing cells (hESCs; DAY 17, factor ABSENT): 4.8%; CD34 expressing cells (hESCs; DAY 17, factor ABSENT): 2.5%; CD43 expressing cells (hESCs; DAY 17, factor ABSENT): 4.8%; CD45 expressing cells (hESCs; DAY 17, factor ABSENT): 4.9%; FLK-1 expressing cells (hESCs; DAY 17, factor ABSENT): 1.7%; CD31 expressing cells (hESCs; DAY 17, factor PRESENT): 8.6%; CD34 expressing cells (hESCs; DAY 17, factor PRESENT): 2.4%; CD43 expressing cells (hESCs; DAY 17, factor PRESENT): 9.2%; CD45 expressing cells (hESCs; DAY 17, factor PRESENT): 8.8%; FLK-1 expressing cells (hESCs; DAY 17, factor PRESENT): 2.0%
SCF: Stem cell factor, a cytokine which binds CD117 (c-Kit) | 0.7 | 0.8 | 0.8 | 0.2 | 1.9 | 0.9 | 1.5 | 1.0 | 0.2 | 2.0 | 1.3 | 1.7 | 1.2 | 1.5 | 0.3 | 2.6 | 2.6 | 3.2 | 2.4 | 0.6 | CD31 expressing cells (hESCs; DAY 17, factor ABSENT): 3.9%; CD34 expressing cells (hESCs; DAY 17, factor ABSENT): 2.3%; CD43 expressing cells (hESCs; DAY 17, factor ABSENT): 4.1%; CD45 expressing cells (hESCs; DAY 17, factor ABSENT): 4.0%; FLK-1 expressing cells (hESCs; DAY 17, factor ABSENT): 1.4%; CD31 expressing cells (hESCs; DAY 17, factor PRESENT): 9.3%; CD34 expressing cells (hESCs; DAY 17, factor PRESENT): 2.6%; CD43 expressing cells (hESCs; DAY 17, factor PRESENT): 9.8%; CD45 expressing cells (hESCs; DAY 17, factor PRESENT): 9.6%; FLK-1 expressing cells (hESCs; DAY 17, factor PRESENT): 2.2%
BMP4: Bone morphogenetic protein-4 | 0.2 | 0.5 | 0.1 | 0.2 | 1.4 | 1.3 | 1.7 | 1.6 | 0.2 | 2.4 | 0.6 | 1.3 | 0.3 | 0.1 | 0.2 | 3.2 | 2.9 | 4.0 | 3.7 | 0.7 | CD31 expressing cells (hESCs; DAY 17, factor ABSENT): 1.0%; CD34 expressing cells (hESCs; DAY 17, factor ABSENT): 2.0%; CD43 expressing cells (hESCs; DAY 17, factor ABSENT): 0.7%; CD45 expressing cells (hESCs; DAY 17, factor ABSENT): 0.3%; FLK-1 expressing cells (hESCs; DAY 17, factor ABSENT): 0.8%; CD31 expressing cells (hESCs; DAY 17, factor PRESENT): 11.9%; CD34 expressing cells (hESCs; DAY 17, factor PRESENT): 2.9%; CD43 expressing cells (hESCs; DAY 17, factor PRESENT): 12.8%; CD45 expressing cells (hESCs; DAY 17, factor PRESENT): 12.8%; FLK-1 expressing cells (hESCs; DAY 17, factor PRESENT): 2.7%; role during EB differentiation (hESCs): significant role at all time points; promotion of hematopoietic differentiation (pluripotent cells): did not promote hematopoietic differentiation
FLT-3: Flt3 ligand, the endogenous ligand for FLT3 (protein, UniProt P49771 27-235, looked up) Fms-related tyrosine kinase 3 …: TQDCSFQHSPISSDFAVKIRELSDYLLQDYPVTVASNLQDEELCGGLWRLVLAQRWMERLKTVAGSKMQGLLERVNTEIHFVTKCAFQPPPSCLRFVQTNISRLLQETSEQLVALKPWITRQNFSRCLELQCQPDSSTLPPPWSPRPLEATAPTAPQPPLLLLLLLPVGLLLLAAAWCLHWQRTRRRTPRPGEQVPPVPSPQDLLLVEH | 0.5 | 0.9 | 0.3 | 0.2 | 1.6 | 1.0 | 1.4 | 1.4 | 0.2 | 2.2 | 1.5 | 1.7 | 1.4 | 1.2 | 0.5 | 2.4 | 2.6 | 3.0 | 2.7 | 0.5 | CD31 expressing cells (hESCs; DAY 17, factor ABSENT): 1.4%; CD34 expressing cells (hESCs; DAY 17, factor ABSENT): 2.2%; CD43 expressing cells (hESCs; DAY 17, factor ABSENT): 1.1%; CD45 expressing cells (hESCs; DAY 17, factor ABSENT): 0.9%; FLK-1 expressing cells (hESCs; DAY 17, factor ABSENT): 1.3%; CD31 expressing cells (hESCs; DAY 17, factor PRESENT): 11.5%; CD34 expressing cells (hESCs; DAY 17, factor PRESENT): 2.6%; CD43 expressing cells (hESCs; DAY 17, factor PRESENT): 12.4%; CD45 expressing cells (hESCs; DAY 17, factor PRESENT): 12.3%; FLK-1 expressing cells (hESCs; DAY 17, factor PRESENT): 2.4%
GCSF: granulocyte colony-stimulating factor (protein, UniProt P09919 31-207, looked up) Granulocyte …: TPLGPASSLPQSFLLKCLEQVRKIQGDGAALQEKLVSECATYKLCHPEELVLLGHSLGIPWAPLSSCPSQALQLAGCLSQLHSGLFLYQGLLQALEGISPELGPTLDTLQLDVADFATTIWQQMEELGMAPALQPTQGAMPAFASAFQRRAGGVLVASHLQSFLEVSYRVLRHLAQP | 0.8 | 1.2 | 1.0 | 0.2 | 2.2 | 0.7 | 1.1 | 0.8 | 0.2 | 1.7 | 2.2 | 2.4 | 2.3 | 2.6 | 0.7 | 1.8 | 2.0 | 2.3 | 1.5 | 0.4 | CD31 expressing cells (hESCs; DAY 17, factor ABSENT): 4.8%; CD34 expressing cells (hESCs; DAY 17, factor ABSENT): 2.7%; CD43 expressing cells (hESCs; DAY 17, factor ABSENT): 4.9%; CD45 expressing cells (hESCs; DAY 17, factor ABSENT): 4.9%; FLK-1 expressing cells (hESCs; DAY 17, factor ABSENT): 1.6%; CD31 expressing cells (hESCs; DAY 17, factor PRESENT): 8.6%; CD34 expressing cells (hESCs; DAY 17, factor PRESENT): 2.2%; CD43 expressing cells (hESCs; DAY 17, factor PRESENT): 9.1%; CD45 expressing cells (hESCs; DAY 17, factor PRESENT): 8.8%; FLK-1 expressing cells (hESCs; DAY 17, factor PRESENT): 2.1%
